Assay results: US6653354B2, “NMDA antagonist comprising xenon” (priority 1999, dated 2003)
Entries after “also recorded” stand apart in the source; their conditions may differ.

Legend:
[1] = test system: cortical neuronal-glial co-culture injured with NMDA; assay: NMDA-induced neuronal injury in neuronal-glial co-culture (LDH release); assay type: cell-based, mouse
Description: Dissociated murine cortical cell cultures were prepared using whole cerebral neocortices from fetal mice (14-17 days of gestation). Cortical glial cell cultures were prepared from early postnatal mice. After halting non-neuronal cell division with cytosine arabinoside the surviving cortical neuronal cells were plated onto the glial cell background and co-cultured.
15 days after originally harvesting the foetal cortical cells, the co-culture plates were exposed at room temperature to N-methyl,D-aspartate (NMDA), 10-1,000 μM, in a control salt solution (CCS) for 10 minutes. After carefully washing out with CCS, the cells were incubated for 6-24 hours in a Eagle's minimal essential medium free of glutamate or lactate dehydrogenase (LDH) but supplemented with glucose 25 mM, and NaHCO3 38 mM at 37° C. in humidified CO2 (5%) atmosphere. The degree of injury was determined by measuring the LDH released into the medium. A dose-response curve of NMDA-induced injury is shown in FIG. 10, as described hereinbefore.
75% of one atmosphere of xenon was delivered to the cells during and after exposure to a 750 μM NMDA, a concentration which produces a near maximal injury. The degree of injury was determined by measuring the LDH released into the medium (after correcting for “baseline” LDH release). Xenon reduced the injury produced by NMDA by more than 30%; when xenon was continued after NMDA exposure, the injury was further reduced by more than 55%. The results of the protective effect of xenon are illustrated in FIG. 12, as described hereinbefore.

humans = assay: MAC / anaesthetic EC50 in humans; assay type: in vivo; conditions: 37° C.
Description: (§1) The gaseous concentration of xenon which prevents a response to a painful stimulus (i.e. MAC) appears to vary among species, being 71% atm in humans (Cullen SC et al, Anesthesiology 1969, 31:305-309), 98% atm in rhesus monkeys (Whitehurst S L et al, J. Neurosurg. Anesthesiol. 1994, 6:275-279) and 161% atm in rats (Koblin D D et al, Anesth. Analg. 1998, 87:419-424). When these values are converted to free aqueous concentrations at 37° C. (Franks N P et al, Br. J. Anaesth. 1993, 71:65-76; Franks N P et al, Anesthesiology, 1996, 84:716-720) using an Ostwald water/gas partition coefficient of 0.0887 (Weathersby P K et al, Undersea Biomed. Res. 1980, 7:277-296), the values obtained are 2.5 mM, 3.4 mM and 5.6 mM for humans, monkeys and rats respectively, with the average value being 3.8 mM. For the experiments described herein, performed at room temperature, the concentration of xenon present in the standard test solution was 3.4 mM. […] This is illustrated with representative traces in FIG. 2.

[2] = cited from earlier work
[3] = test system: GABAergic synapses (GABAA receptors) of hippocampal neurons; assay type: cell-based, rat
Description: Hippocampal neurons were grown in culture using methods described previously (Segal M M et al, J. Neurophysiol. 1990, 64:1390-1399; Bekkers J M et al, Proc. Natl. Acad. Sci. U.S.A. 1991, 88:7834-7838; Mennerick S et al, J. Neurophysiol. 1995, 73:320-332). Briefly, hippocampi from Sprague Dawley rats (postnatal day 1-3) were dissected, roughly sliced and agitated in a papain-containing solution (20 units ml^−1) for 30 minutes at 37 EC. After washing with enzyme-free solution, the tissue was gently triturated with a fire-polished Pasteur pipette and the cells were plated out at a density of 8-10×10^4 cells ml^−1 and cultured (95% air/5% CO2) at 37° C. Glass coverslips used for culturing the cells were first coated with agarose (0.15% w/v) and then sprayed with a fine mist of poly-D-lysine (PDL) and collagen (0.1 mg ml^−1 PDL and 0.5 mg ml^−1 rat-tail collagen) from a glass micro-atomiser and sterilized by UV exposure. This produced micro-islands of permissive substrate with diameters of between 100 and 1000 μm. At 3-4 days after plating, when the glial cell layer was about 80% confluent, an anti-mitotic agent (cytosine β-D-arabinofuranoside, 5 μM) was added to arrest glial cell proliferation. Neuronal cultures were then allowed to mature for another 4-9 days. We used micro-islands which contained single isolated neurons whose axonal processes and dendritic trees formed multiple self-synapses (autapses). This procedure provided a large population of phenotypically identical monosynaptic connections.
The neurons were voltage-clamped using the whole-cell recording technique (Axopatch 200 amplifier, Axon Instruments, Foster City, Calif.). Electrodes were fabricated from borosilicate glass and typically had resistances of between 3-5 MΩ. Series resistance was compensated by 75-90%. Neurons were voltage-clamped at −60 mV, and synaptic responses were stimulated by a 2 ms depolarising pulse to +20 mV. […] For the synaptic measurements, data were sampled at 50 kHz, filtered at 20 kHz (−3 dB, 8-pole Bessel) and stored on a computer. The extracellular recording solution was (mM) 137 NaCl, 5 KCl, 3 CaCl2, 5 HEPES, 10 glucose, 0.001 glycine, 0.0001 strychnine-HCl, titrated to pH 7.3 with NaOH; and the intracellular (pipette) solution was (mM) 140 KCl, 4 NaCl, 0.5 EGTA, 2 MgATP, 10 HEPES, titrated to pH 7.25 with KOH.
Xenon solutions were prepared by first bubbling pure gases (oxygen, nitrogen or xenon) through fine sintered-glass bubblers in 250- or 500-ml Drechsel bottles filled with extracellular recording saline. […] (To minimise oxidization, the neurotoxins and neurotransmitters were excluded from the fully oxygenated saline.) During bubbling, the solutions were continually stirred at room temperature. These solutions were then mixed to achieve the desired final concentrations of the gases. Our control solutions usually contained 80% of the nitrogen solution and 20% of the oxygen solution, while our test solutions usually contained 80% of the xenon solution and 20% of the oxygen solution. Using a Bunsen water/gas partition coefficient of 0.0965 (Smith R A et al, Biochim. Biophys. Acta 1981, 645:327-338) we calculate that our standard test solution contained 3.4 mM xenon. Xenon (research grade, 99.993% pure) was supplied by BOC gases, Guildford, Surrey, UK. In all cases xenon was pre-applied to the neurons for at least 30 seconds before the initiation of synaptic currents.
In order to obtain an estimate for the total charge transfer, the EPSCs or IPSCs were numerically integrated.

rats = assay: MAC in rats; assay type: in vivo; conditions: 37° C.
Description: as §1

NMDA receptors = assay type: cell-based, rat; conditions: 80% xenon
[4] = inhibitory currents + 3.4 mM xenon

[Xe] [xenon]
protection against excitotoxicity (% of LDH released in the absence of xenon) ([1]; 250 μM NMDA for 10 minutes, low (sub-anaesthetic) concentrations of xenon, LDH after 6 hours): Highly significant protection
excitotoxic injury (LDH release, normalised) ([1]; 250 μM NMDA, 75% xenon): greatly reduced
percentage of neuroprotection ([1]; 75% (atm.) xenon, after 6 hours, 10 minute exposure to 250 μM NMDA): 60%
reduction of the injury produced by NMDA (LDH release) ([1]; 75% of one atmosphere xenon during exposure to 750 μM NMDA): more than 30%
reduction of the injury produced by NMDA (LDH release) ([1]; 75% xenon continued after 750 μM NMDA exposure): more than 55%
MAC converted to free aqueous concentration (humans): 2.5 mM
Ostwald water/gas partition coefficient ([2]; 37° C.): 0.0887
Bunsen water/gas partition coefficient ([2]; room temperature): 0.0965
effect on inhibitory (GABAergic) postsynaptic currents ([3]; 3.4 mM xenon): negligible effects; also recorded: affected neither the peak value, nor the time course; also recorded: no significant effect
Ipeak % change (means ± SEM) ([3]; inhibitory currents + 3.4 mM (~1 MAC) xenon): −3.1 ± 2.2%
Decay half-time % change (means ± SEM) [3, 4]: −3.4 ± 2.4%
Ifast % change (means ± SEM) [3, 4]: −4.3 ± 2.8%
Islow % change (means ± SEM) [3, 4]: 18.8 ± 12.4%
Qfast % change (means ± SEM) [3, 4]: 1.5 ± 7.2%
Qslow % change (means ± SEM) [3, 4]: 12.6 ± 8.4%
Total charge transfer % change (means ± SEM) [3, 4]: −2.3 ± 3.9%
τfast % change (means ± SEM) [3, 4]: −1.3 ± 3.5%
τslow % change (means ± SEM) [3, 4]: 0.8 ± 6.0%
MAC converted to free aqueous concentration (rats): 5.6 mM
change of NMDA EC50 or Hill coefficient in presence of xenon (NMDA receptors): no significant change; also recorded: does not significantly change
